Key:
Assay in all cases: MTT cell death assay, chemotherapeutic with and without MADD siRNA knockdown
Format in all cases: cell-based
[1] = test system: H2227 lung cancer cells; conditions: siRNA 10 nM
Method: (§1) Cells are cultured and maintained at 37° C. in a humidified atmosphere containing 5% CO2 as described above. On Day 0, Cells are seeded in […] tissue culture dishes (Corning; Cat Number: 353003) to attain 60-70% confluence. In parallel, cells are also seeded in one 96-well plate (Corning; Cat number: 353072) for analysis of survival before reseeding. After 12-18 hours (Day 1), cells are transfected with Scramble or MADD siRNA at 10 nM concentration. The sequences of siRNAs (double-stranded) used are:
(§2) On Day 4, when cells are properly adhered and retained their shape in 96-well plates, drugs are added. All drugs are diluted in complete media on the same day prior to the addition to the cells. In untreated cells, media is replaced with complete media. Two hundred μl volume of media (with or without drugs) is used for the drug treatment assay. Plates are incubated 24 hours, 48 hours and 72 hours at 37° C. in humidified CO2 incubator.
(§3) An MTT assay is performed to determine relative survival after drug treatment as described above. MTT (3-[4,5-Dimethylthiazol-2-yl]-2,5-diphenyltetrazolium bromide; Thiazolyl blue) is purchased from Sigma Aldrich (Cat number: M5655). MTT is dissolved in sterile DPBS at the concentration of 5 mg/ml and filtered through 0.45 μM syringe filter (Corning; Cat number: 431220). Ten μl of MTT solution is added per well of 96-well plate. Plates are incubated for 2 hours at 37° C. in the humidified CO2 incubator. After 2 hours, media is aspirated using vacuum inside the biosafety hood. Purple colored crystals formed in viable cells are dissolved by adding 100 μl of Dimethyl sulfoxide (Thermo Fisher Scientific; Cat number D128-500) Plates are kept on shaker for 10 minutes for compete dissolution of crystals and absorbance is recorded at 595 nm using Bio-Rad iMark microplate reader. Data is analyzed in MICROSOFT EXCEL® software. Relative survival is calculated with respect to absorbance of control (untreated cells) to determine the effect of transfection as well as combination treatment.
(§4) Each data set takes into account any spontaneous cell death which is observed upon transfection with Scramble siRNA; the amount of spontaneous cell death from Scramble siRNA transfection (baseline) is subtracted from the amount of cell death observed in each siRNA transfection reaction to yield a Net Percent (Net %) cell death after accounting for Scrambled siRNA-induced cell death.
(§5) Cells are cultured and maintained at 37° C. in a humidified atmosphere containing 5% CO2 as described above. On Day 0, Cells are seeded in […] tissue culture dishes (Corning; Cat Number: 353003) to attain 60-70% confluence. In parallel, cells are also seeded in one 96-well plate (Corning; Cat number: 353072) for analysis of survival before reseeding. After 12-18 hours (Day 1), cells are transfected with Scramble or MADD siRNA at 10 nM concentration. The sequences of siRNAs (double stranded) used are:
(§6) On Day 4, when cells are properly adhered and retained their shape in 96-well plates, drugs are added. Doxorubicin was added at a working concentration of 5.0 nM, 9.375 nM, 0.075 μM, 0.25 μM, 0.5 μM, and 0.8 μM. All drugs are diluted in complete media on the same day prior to the addition to the cells. In untreated cells, media is replaced with complete media. Two hundred μl volume of media (with or without drugs) is used for the drug treatment assay. Plates are incubated 24 hours, 48 hours and 72 hours at 37° C. in humidified CO2 incubator.
(§7) An MTT assay is performed to determine relative survival after drug treatment as described above. MTT (3-[4,5-Dimethylthiazol-2-yl]-2,5-diphenyltetrazolium bromide; Thiazolyl blue) is purchased from Sigma Aldrich (Cat number: M5655). MTT is dissolved in sterile DPBS at the concentration of 5 mg/ml and filtered through […] syringe filter (Corning; Cat number: 431220). Ten μl of MTT solution is added per well of 96-well plate. Plates are incubated for 2 hours at 37° C. in the humidified CO2 incubator. […]

[2] = test system: K562 chronic myelogenous leukemia cells; conditions: siRNA 10 nM
Method: as §1, §2, §3, §4, §5, §6, §7

[3] = test system: SU.86.86 pancreatic cancer cells; conditions: Doxorubicin 5 nM, siRNA 10 nM, 24 hours post Doxorubicin treatment
Method: as §1, §2, §3, §4, §5, §6, §7

[4] = test system: JIMT1 breast cancer cells; conditions: Doxorubicin 0.075 μM, siRNA 10 nM, 24 hours post Doxorubicin treatment
Method: as §5, §6
as §3, with “D128-500).” for “D128-500)”
as §4

[5] = test system: N87 gastric carcinoma cells; conditions: Doxorubicin 0.8 μM, siRNA 10 nM, 72 hours post Doxorubicin treatment
Method: as §5, §6
as §3, with “D128-500).” for “D128-500)”
as §4

[6] = test system: AGS gastric adenocarcinoma cells; conditions: siRNA 10 nM
Method: (§8) Cells are cultured and maintained at 37° C. in a humidified atmosphere containing 5% CO2 as described above. […] After 12-18 hours (Day 1), cells are transfected with Scramble or MADD siRNA at 10 nM concentration. The sequences of siRNAs (double-stranded) used are:
as §2
as §3, with “MTT is dissolved in sterile DPBS at the concentration of 5 mg/ml and filtered through 0.45 μM syringe filter (Corning; Cat number: 431220).” left out
as §4
(§9) Cells are cultured and maintained at 37° C. in a humidified atmosphere containing 5% CO2 as described above. […] After 12-18 hours (Day 1), cells are transfected with Scramble or MADD siRNA at 10 nM concentration. The sequences of siRNAs (double stranded) used are:
as §3, with “MTT is dissolved in sterile DPBS at the concentration of 5 mg/ml and filtered through 0.45 μM syringe filter (Corning; Cat number: 431220).” left out, “D128-500).” for “D128-500)”
(§10) On Day 4, when cells are properly adhered and retained their shape in 96-well plates, drugs are added. All drugs are diluted in complete media on the same day prior to the addition to the cells. In untreated cells, media is replaced with complete media. Two hundred μl volume of media (with or without drugs) is used for the drug treatment assay. Plates are incubated 24 h, 48 h and 72 hours at 37° C. in humidified CO2 incubator.

[7] = test system: PLC/PRF/5 hepatic cancer cells; conditions: siRNA 10 nM
Method: as §8, §2
as §3, with “MTT is dissolved in sterile DPBS at the concentration of 5 mg/ml and filtered through 0.45 μM syringe filter (Corning; Cat number: 431220).” left out
as §4, §9
as §3, with “MTT is dissolved in sterile DPBS at the concentration of 5 mg/ml and filtered through 0.45 μM syringe filter (Corning; Cat number: 431220).” left out, “D128-500).” for “D128-500)”
as §10

[8] = test system: H522 lung cancer cells; conditions: Gemcitabine 8.2 nM, siRNA 10 nM, 48 hours post Gemcitabine treatment
Method: as §1, §2, §3, §4, §5
as §3, with “D128-500).” for “D128-500)”, “Relative survival is calculated with respect to absorbance of control (untreated cells) to determine the effect of transfection as well as combination treatment.” left out

[9] = test system: OVCAR3 ovarian cancer cells; conditions: siRNA 10 nM
Method: as §1, §2, §3, §4, §5
as §3, with “D128-500).” for “D128-500)”, “Relative survival is calculated with respect to absorbance of control (untreated cells) to determine the effect of transfection as well as combination treatment.” left out

[10] = test system: 8505C thyroid cancer cells; conditions: 8505C; Cisplatin 2.5 μM; siRNA 10 nM; 48 hours post Cisplatin treatment
Method: as §9, §10
as §3, with “MTT is dissolved in sterile DPBS at the concentration of 5 mg/ml and filtered through 0.45 μM syringe filter (Corning; Cat number: 431220).” left out
as §4, §2

[11] = test system: HTH7 thyroid cancer cells; conditions: siRNA 10 nM
Method: as §9, §2
as §3, with “MTT is dissolved in sterile DPBS at the concentration of 5 mg/ml and filtered through 0.45 μM syringe filter (Corning; Cat number: 431220).” left out
as §4

[12] = Doxorubicin 9.375 nM, 48 hours post Doxorubicin treatment
[13] = Doxorubicin 0.25 μM, 72 hours post Doxorubicin treatment
[14] = Doxorubicin 0.5 μM, 48 hours post Doxorubicin treatment
[15] = 5-flurouracil 25 μM, 72 hours post 5-flurouracil treatment
[16] = Gemcitabine 25 nM, 48 hours post Gemcitabine treatment
[17] = Gemcitabine 1 μM, 48 hours post Gemcitabine treatment
[18] = Gemcitabine 0.03125 μM, 24 hours post Gemcitabine treatment
[19] = Gemcitabine 0.1 μM, 48 hours post Gemcitabine treatment
[20] = Cisplatin 1.875 μM, 24 hours post Cisplatin treatment
[21] = Cisplatin 1.25 μM, 72 hours post Cisplatin treatment
[22] = Cisplatin 5 μM, 24 hours post Cisplatin treatment

COc1cccc2c1C(=O)c1c(O)c3c(c(O)c1C2=O)C[C@@](O)(C(=O)CO)C[C@@H]3O[C@H]1C[C@H](N)[C@H](O)[C@H](C)O1 [Doxorubicin]
Net % cell death after accounting for Scrambled siRNA [1, 12]: 3% | Observed % Cell death [1, 12]: 3% | Net % cell death after accounting for Scrambled siRNA [2, 13]: 11% | Observed % Cell death [2, 13]: 11% | Net % cell death after accounting for Scrambled siRNA [2, 14]: 0% | Observed % Cell death [2, 14]: 0% | Net % cell death after accounting for Scrambled siRNA [3]: 36% | Observed % Cell death [3]: 36% | Net % cell death after accounting for Scrambled siRNA [4]: 17% | Observed % Cell death [4]: 17% | Net % cell death after accounting for Scrambled siRNA [5]: 38% | Observed % Cell death [5]: 38%

O=c1[nH]cc(F)c(=O)[nH]1 [5-flurouracil]
Net % cell death after accounting for Scrambled siRNA [6, 15]: 22% | Observed % Cell death [6, 15]: 22%

Nc1ccn([C@@H]2O[C@H](CO)[C@@H](O)C2(F)F)c(=O)n1 [Gemcitabine]
Net % cell death after accounting for Scrambled siRNA [1, 16]: 15% | Observed % Cell death [1, 16]: 15% | Net % cell death after accounting for Scrambled siRNA [6, 17]: 38% | Observed % Cell death [6, 17]: 38% | Net % cell death after accounting for Scrambled siRNA [7, 18]: 1% | Observed % Cell death [7, 18]: 1% | Net % cell death after accounting for Scrambled siRNA [8]: 4% | Observed % Cell death [8]: 4% | Observed % Cell death ([9]; Gemcitabine 0.0125 μM, 72 hours post Gemcitabine treatment): 19% | Net % cell death after accounting for Scrambled siRNA [9, 19]: 28% | Observed % Cell death [9, 19]: 28%

N.N.[Cl][Pt][Cl] [Cisplatin]
Net % cell death after accounting for Scrambled siRNA [7, 20]: 41% | Observed % Cell death [7, 20]: 41% | Net % cell death after accounting for Scrambled siRNA [10]: 19% | Observed % Cell death [10]: 19% | Net % cell death after accounting for Scrambled siRNA [11, 21]: 0% | Observed % Cell death [11, 21]: 0% | Net % cell death after accounting for Scrambled siRNA [11, 22]: 13% | Observed % Cell death [11, 22]: 13%

— patent US11273172B2, “Synergistic combination of oligonucleotides and chemotherapeutic for treating cancer” (THE BOARD OF TRUSTEES OF THE UNIVERSITY OF ILLINOIS, priority 2017, dated 2022)
